Patent US20210340120A1, “PESTICIDALLY ACTIVE AZOLE-AMIDE COMPOUNDS” (SYNGENTA PARTICIPATIONS AG, priority 2018, published 2021)

Assays:
Format in all cases: in vivo
Diabrotica balteata = assay: Example B1: Diabrotica balteata (corn root worm), maize sprouts sprayed, L2 larvae; conditions: 96 h, application rate 200 ppm, 4 days after infestation, read-out: control in at least one of the two categories (mortality or growth inhibition)
Description: Maize sprouts placed onto an agar layer in 24-well microtiter plates were treated with aqueous test solutions prepared from 10′000 ppm DMSO stock solutions by spraying. After drying, the plates were infested with L2 larvae (6 to 10 per well). The samples were assessed for mortality and growth inhibition in comparison to untreated samples 4 days after infestation.

Euschistus heros = assay: Example B2: Euschistus heros (neotropical brown stink bug), soybean leaves sprayed, N2 nymphs; conditions: 120 h, application rate 200 ppm, 5 days after infestation, read-out: control in at least one of the two categories (mortality or growth inhibition)
Description: Soybean leaves on agar in 24-well microtiter plates were sprayed with aqueous test solutions prepared from 10′000 ppm DMSO stock solutions. After drying the leaves were infested with N2 nymphs. The samples were assessed for mortality and growth inhibition in comparison to untreated samples 5 days after infestation.

Plutella xylostella = assay: Example B3: Plutella xylostella (diamond back moth), artificial diet, eggs; conditions: 192 h, application rate 200 ppm, 8 days after infestation, read-out: control in at least one of the two categories (mortality or growth inhibition)
Description: 24-well microtiter plates with artificial diet were treated with aqueous test solutions prepared from 10′000 ppm DMSO stock solutions by pipetting. After drying, Plutella eggs were pipetted through a plastic stencil onto a gel blotting paper and the plate was closed with it. The samples were assessed for mortality and growth inhibition in comparison to untreated samples 8 days after infestation. The following compounds gave an effect of at least 80% control in at least one of the two categories (mortality or growth inhibition) at an application rate of 200 ppm: P1, P2, P3, P4, P5, P6

Spodoptera littoralis = assay: Example B6: Spodoptera littoralis (Egyptian cotton leaf worm), cotton leaf discs, L1 larvae; conditions: foliar, 72 h, application rate 200 ppm, 3 days after infestation, read-out: control in at least one of the categories (mortality, anti-feedant effect, or growth inhibition)
Description: Cotton leaf discs were placed onto agar in 24-well microtiter plates and sprayed with aqueous test solutions prepared from 10′000 ppm DMSO stock solutions. After drying the leaf discs were infested with five L1 larvae. The samples were assessed for mortality, anti-feeding effect, and growth inhibition in comparison to untreated samples 3 days after infestation. Control of Spodoptera littoralis by a test sample is given when at least one of the categories mortality, anti-feedant effect, and growth inhibition is higher than the untreated sample.

Chilo suppressalis = assay: Example B9: Chilo suppressalis (striped rice stemborer), artificial diet, L2 larvae; conditions: 144 h, application rate 200 ppm, 6 days after infestation, read-out: control in at least one of the three categories (mortality, anti-feedant effect or growth inhibition)
Description: 24-well microtiter plates with artificial diet were treated with aqueous test solutions prepared from 10′000 ppm DMSO stock solutions by pipetting. After drying, the plates were infested with L2 larvae (6-8 per well). The samples were assessed for mortality, anti-feeding effect, and growth inhibition in comparison to untreated samples 6 days after infestation. Control of Chilo suppressalis by a test sample is given when at least one of the categories mortality, anti-feedant effect, and growth inhibition is higher than the untreated sample.

Myzus persicae [1] = assay: Example B5: Myzus persicae (green peach aphid) intrinsic activity, sucrose solution, 24-well; conditions: 120 h, test rate 12 ppm, 5 days after infestation
Description: Test compounds prepared from 10′000 ppm DMSO stock solutions were applied by pipette into 24-well microtiter plates and mixed with sucrose solution. The plates were closed with a stretched Parafilm. A plastic stencil with 24 holes was placed onto the plate and infested pea seedlings were placed directly on the Parafilm. The infested plate was closed with a gel blotting paper and another plastic stencil and then turned upside down. The samples were assessed for mortality 5 days after infestation.

Tetranychus urticae = assay: Example B7: Tetranychus urticae (two-spotted spider mite) feeding/contact activity, bean leaf discs; conditions: foliar, 192 h
Description: Bean leaf discs on agar in 24-well microtiter plates were sprayed with aqueous test solutions prepared from 10′000 ppm DMSO stock solutions. After drying the leaf discs were infested with a mite population of mixed ages. The samples were assessed for mortality on mixed population (mobile stages) 8 days after infestation.

Thrips tabaci = assay: Example B8: Thrips tabaci (onion thrips) feeding/contact activity, sunflower leaf discs; conditions: foliar, 144 h, application rate 200 ppm, 6 days after infestation, mixed ages
Description: Sunflower leaf discs were placed on agar in 24-well microtiter plates and sprayed with aqueous test solutions prepared from 10′000 ppm DMSO stock solutions. After drying the leaf discs were infested with a thrips population of mixed ages. The samples were assessed for mortality 6 days after infestation.

Myzus persicae [2] = assay: Example B10: Myzus persicae (green peach aphid), sucrose solution, 96-well; conditions: 120 h, application rate 50 ppm, 5 days after infestation
Description: Test compounds prepared from 10′000 ppm DMSO stock solutions were applied by a liquid handling robot into 96-well microtiter plates and mixed with a sucrose solution. Parafilm was stretched over the 96-well microtiter plate and a plastic stencil with 96 holes was placed onto the plate. Aphids were sieved into the wells directly onto the Parafilm. The infested plates were closed with a gel blotting card and a second plastic stencil and then turned upside down. The samples were assessed for mortality 5 days after infestation.

Myzus persicae [3] = assay: Example B4: Myzus persicae (green peach aphid) feeding/contact activity, sunflower leaf discs; conditions: foliar, 144 h, application rate 200 ppm, 6 days after infestation, mixed ages
Description: Sunflower leaf discs were placed onto agar in a 24-well microtiter plate and sprayed with aqueous test solutions prepared from 10′000 ppm DMSO stock solutions. After drying, the leaf discs were infested with an aphid population of mixed ages. The samples were assessed for mortality 6 days after infestation.

CC(NC(=O)c1cc(C(F)(F)F)cc(C(F)(F)F)c1)c1ncnn1-c1ccc(Cl)cn1 (stereo not shown) [Compound P1, N-[1-[2-(5-chloro-2-pyridyl)-1,2,4-triazol-3-yl]ethyl]-3,5-bis(trifluoromethyl)benzamide]
≥ 80%: percent control (mortality or growth inhibition) at 200 ppm (Diabrotica balteata) | percent control (mortality or growth inhibition) at 200 ppm (Euschistus heros) | percent control (mortality or growth inhibition) at 200 ppm (Plutella xylostella) | percent control (mortality, anti-feedant effect or growth inhibition) at 200 ppm (Spodoptera littoralis) | percent control (mortality, anti-feedant effect or growth inhibition) at 200 ppm (Chilo suppressalis)

CC(c1ncnn1-c1ncccc1F)N(CC1CC1)C(=O)c1cc(C(F)(F)F)cc(C(F)(F)F)c1 (stereo not shown) [Compound P2, N-(cyclopropylmethyl)-N-[1-[2-(3-fluoro-2-pyridyl)-1,2,4-triazol-3-yl]ethyl]-3,5-bis(trifluoromethyl)benzamide]
≥ 80%: percent control (mortality or growth inhibition) at 200 ppm (Diabrotica balteata) | percent control (mortality or growth inhibition) at 200 ppm (Plutella xylostella) | percent control (mortality, anti-feedant effect or growth inhibition) at 200 ppm (Spodoptera littoralis)

CC(NC(=O)c1cc(C(F)(F)F)cc(C(F)(F)F)c1)c1ncnn1-c1ccc(F)cn1 (stereo not shown) [Compound P3, N-[1-[2-(5-fluoro-2-pyridyl)-1,2,4-triazol-3-yl]ethyl]-3,5-bis(trifluoromethyl)benzamide]
≥ 80%: percent control (mortality or growth inhibition) at 200 ppm (Diabrotica balteata) | percent control (mortality or growth inhibition) at 200 ppm (Euschistus heros) | percent control (mortality or growth inhibition) at 200 ppm (Plutella xylostella) | mortality at 12 ppm (Myzus persicae [1]) | percent control (mortality, anti-feedant effect or growth inhibition) at 200 ppm (Spodoptera littoralis) | mortality at 200 ppm (Tetranychus urticae)

CC(NC(=O)c1cc(C(F)(F)F)cc(C(F)(F)F)c1)c1ncnn1-c1ncccc1F (stereo not shown) [Compound P4, N-[1-[2-(3-fluoro-2-pyridyl)-1,2,4-triazol-3-yl]ethyl]-3,5-bis(trifluoromethyl)benzamide]
≥ 80%: percent control (mortality or growth inhibition) at 200 ppm (Diabrotica balteata) | percent control (mortality or growth inhibition) at 200 ppm (Euschistus heros) | percent control (mortality or growth inhibition) at 200 ppm (Plutella xylostella) | percent control (mortality, anti-feedant effect or growth inhibition) at 200 ppm (Spodoptera littoralis) | mortality at 200 ppm (Thrips tabaci) | mortality at 50 ppm (Myzus persicae [2])

CC(c1ncnn1-c1ccc(F)cn1)N(CC1CC1)C(=O)c1cc(C(F)(F)F)cc(C(F)(F)F)c1 (stereo not shown) [Compound P5, N-(cyclopropylmethyl)-N-[1-[2-(5-fluoro-2-pyridyl)-1,2,4-triazol-3-yl]ethyl]-3,5-bis(trifluoromethyl)benzamide]
≥ 80%: percent control (mortality or growth inhibition) at 200 ppm (Diabrotica balteata) | percent control (mortality or growth inhibition) at 200 ppm (Euschistus heros) | percent control (mortality or growth inhibition) at 200 ppm (Plutella xylostella) | mortality at 200 ppm (Myzus persicae [3]) | percent control (mortality, anti-feedant effect or growth inhibition) at 200 ppm (Spodoptera littoralis) | mortality at 200 ppm (Tetranychus urticae)

CC(NC(=O)c1cc(C(F)(F)F)cc(C(F)(F)F)c1)c1ncnn1-c1cccc(F)n1 (stereo not shown) [Compound P6, N-[1-[2-(6-fluoro-2-pyridyl)-1,2,4-triazol-3-yl]ethyl]-3,5-bis(trifluoromethyl)benzamide]
≥ 80%: percent control (mortality or growth inhibition) at 200 ppm (Plutella xylostella) | percent control (mortality, anti-feedant effect or growth inhibition) at 200 ppm (Chilo suppressalis)
